# According to patent US20140357512A1, “HISTONE DEACETYLASE (HDAC) BIOMARKERS IN MULTIPLE MYELOMA” (priority 2013, published 2014):
# Tested on: human myeloma cell line MM.1S
# Experiment: SILAC acetylated-lysine peptide profiling, HDAC inhibitor vs DMSO (light/heavy ratio)
# Format: cell-based
# Text: An embodiment of the invention comprises utilizing the SILAC method in order to quantitate changes in protein expression between two or more populations of cells. The SILAC method is a technique based on mass spectrometry that detects differences in protein abundance among samples using non-radioactive isotopic labeling. The SILAC method is known in the art, and described in detail in Ong et al., “Stable Isotope Labeling by Amino Acids in Cell Culture, SILAC, as a Simple and Accurate Approach to Expression Proteomics”, Molecular & Cellular Proteomics, vol. 1, pp. 376-386 (2002), which is incorporated herein by reference in its entirety.
# Briefly, the SILAC method involves growing two populations of cells in cell culture. The first population of cells is grown in growth media containing normal amino acids (“normal media”). The second population of cells is grown in media lacking a standard essential amino acid (such as lysine), but is then supplemented with a non-radioactive, isotopically labeled form of that essential amino acid (such as lysine labeled with ^13C atoms, rather than normal ^12C atoms), which is called “heavy media”. When the two populations of cells are each growing in the medium, they incorporate the amino acids into all of their proteins. The growth of cells maintained in the heavy media is no different from that in normal media. All peptides containing the heavy amino acids are heavier than their normal counterparts. The cells from each of the two populations of cells are lysed. The lysates from each of the two cell populations are then combined. The combined cell lysates are then analyzed by mass spectrometry. Pairs of chemically identical peptides of different stable isotope composition can be differentiated in a mass spectrometer due to their difference in mass. The ratio of peak intensities in the mass spectrum for such peptide pairs reflects the abundance ratio for the two proteins.
# This example describes SILAC studies that were performed to compare the effects of three different HDAC inhibitors (Compound A, Compound B, and tubastatin A) to a control on a human multiple myeloma cell line. The HDAC inhibitors were also compared amongst themselves to determine differences in their effects.
# A human myeloma cell line MM.1S was grown using either ^12C (light) or ^13C (heavy) lysine containing culture medium. The “heavy” cells were treated with DMSO as the control, and the “light” cells were treated with a single HDAC inhibitor at 37° C. for 6 hours. The heavy and light cells were lysed, and the lysates were mixed in 1:1 ratio and digested with the protease trypsin. The acetylated lysine containing peptides (due to the action of the HDAC inhibitor) in the digested peptide pool were captured by a non-specific anti-acetylated lysine antibody cocktail (the antibodies identify both light and heavy acetylated peptides), and subjected to mass spectrometry analysis in order to identify thousands of individual peptides.
# Thousands of peptides were identified in pairs (^12C and ^13C) due to their known mass differences. The amino acid sequence and quantitative ratio (Light/Heavy) of a given peptide in two differentially treated cell lysates were then determined and annotated with their possible protein (gene) sources.
# As stated above, three HDAC inhibitors (Compound A, Compound B, and Tubastatin A) were used. Thus, the SILAC method was performed three times, with a different HDAC inhibitor compared to a control each time. Accordingly, there are three pairs of quantitative data in the table below, i.e., Compound A:DMSO, Compound B:DMSO, and Tubastatin A:DMSO. A cut-off of 1.30 fold of change (increase or decrease) was then used to determine “changed” or “+” in the table, and any peptides with a fold of change less than 1.3 fold were determined to be “unchanged” or “0” in the table. Those peptides that were not identified were marked as “NA” in the table. […]
compound,measurement,setting,value
"O=C(CCCCCCNC(=O)c1cnc(N(c2ccccc2)c2ccccc2)nc1)NO [Compound A, 2-(diphenylamino)-N-(7-(hydroxyamino)-7-oxoheptyl)pyrimidine-5-carboxamide]",L/H ratio of acetylated peptide FIK(ac)IDGK,"SEQ ID NO: 660, 40S ribosomal protein S4 X isoform [71], RPS4X",0.57 log 2
same,L/H ratio of acetylated peptide LAMVK(ac)AEPDVK,"SEQ ID NO: 661, NADH dehydrogenase [ubiquinone] 1 alpha subcomplex subunit 5 [60], NDUFA5",0.58 log 2
same,L/H ratio of acetylated peptide NEK(ac)LFYR,"SEQ ID NO: 662, NADP-dependent malic enzyme mitochondrial [119], ME3",0.58 log 2
same,L/H ratio of acetylated peptide K(ac)FVCPECSK,"SEQ ID NO: 663, Isoform 1 of Transcription factor Sp3 [680], SP3",0.58 log 2
same,L/H ratio of acetylated peptide DLSLDDFK(ac)GK,"SEQ ID NO: 664, Thioredoxin-dependent peroxide reductase mitochondrial [91], PRDX3",0.58 log 2
same,L/H ratio of acetylated peptide DLTDYLMK(ac)ILTER,"SEQ ID NO: 665, Beta-actin-like protein 2 [192], ACTBL2",0.58 log 2
same,L/H ratio of acetylated peptide HGASPELQK(ac)QIR,"SEQ ID NO: 666, Peroxisomal membrane protein 11B [43], PEX11B",0.58 log 2
same,L/H ratio of acetylated peptide LNQLK(ac)PGLQYK,"SEQ ID NO: 667, Isoform 5 of Interleukin enhancer-binding factor 3 [413], ILF3",0.59 log 2
same,L/H ratio of acetylated peptide ISK(ac)LYGDLK,"SEQ ID NO: 668, cDNA FLJ61478 highly similar to Succinate dehydrogenase (ubiquinone) flavoprotein subunit mitochondrial [541], SDHA",0.59 log 2
same,L/H ratio of acetylated peptide LTSDDVK(ac)EQIYK,"SEQ ID NO: 669, 40S ribosomal protein S13 [34], RPS13",0.60 log 2
same,L/H ratio of acetylated peptide SCNCLLLK(ac)[…],"SEQ ID NO: 670, Isoform alpha-enolase of Alpha-enolase [343], ENO1",0.60 log 2
same,L/H ratio of acetylated peptide […](ac)FLIK,"SEQ ID NO: 671, Methyltransferase-like protein 7A [105], METTL7A",0.60 log 2
same,L/H ratio of acetylated peptide […](ac)QLK,"SEQ ID NO: 672, Annexin A6 [442], ANXA6",0.60 log 2
same,L/H ratio of acetylated peptide EVK(ac)LLLLGAGESGK,"SEQ ID NO: 673, Guanine nucleotide-binding protein G(k) subunit alpha [35], GNAI3",0.60 log 2
same,L/H ratio of acetylated peptide […](ac)LR,"SEQ ID NO: 674, Isoform 1 of Vesicle-associated membrane protein-associated protein A [125], VAPA",0.60 log 2
same,L/H ratio of acetylated peptide YNWSAK(ac)AK,"SEQ ID NO: 675, 60S ribosomal protein L37 [52], RPL37",0.60 log 2
same,L/H ratio of acetylated peptide GNK(ac)PWISLPR,"SEQ ID NO: 676, 40S ribosomal protein S4 X isoform [233], RPS4X",0.60 log 2
same,L/H ratio of acetylated peptide […](ac)NK,"SEQ ID NO: 677, Isoform Long of ES1 protein homolog mitochondrial [233], C21orf33",0.61 log 2
same,L/H ratio of acetylated peptide LENDK(ac)SFR,"SEQ ID NO: 678, Isoform 1 of Enoyl-CoA delta isomerase 1 mitochondrial [89], ECI1",0.61 log 2
same,L/H ratio of acetylated peptide LVAMK(ac)FLR,"SEQ ID NO: 679, Isoform 1 of Nucleoside diphosphate kinase B [39], NME1, NME2, NME1-NME2",0.61 log 2
same,L/H ratio of acetylated peptide KVPFGK(ac)TYCCDLK,"SEQ ID NO: 680, Mitochondrial carrier homolog 2 [293], MTCH2",0.62 log 2
same,L/H ratio of acetylated peptide TK(ac)[…],"SEQ ID NO: 681, Isoform 1 of Structural maintenance of chromosomes protein 2 [1160], SMC2",0.62 log 2
same,L/H ratio of acetylated peptide LAQLEEAK(ac)[…],"SEQ ID NO: 682, ATP synthase subunit b mitochondrial [139], ATP5F1",0.63 log 2
same,L/H ratio of acetylated peptide IPVPVQK(ac)NIDQQIK,"SEQ ID NO: 683, Isoform 1 of Pre-mRNA-splicing factor 38B [227], PRPF38B",0.64 log 2
same,L/H ratio of acetylated peptide […](ac)K,"SEQ ID NO: 684, Protein disulfide-isomerase [207], P4HB",0.64 log 2
same,L/H ratio of acetylated peptide VDIRPQLLK(ac)NALQR,"SEQ ID NO: 685, Isoform 1 of Heterochromatin protein 1-binding protein 3 [302], HP1BP3",0.64 log 2
same,L/H ratio of acetylated peptide NQK(ac)LTATTQK,"SEQ ID NO: 686, Nucleoprotein TPR [748], TPR",0.64 log 2
same,L/H ratio of acetylated peptide YYK(ac)NIGLGFK,"SEQ ID NO: 687, 40S ribosomal protein S11 [38], RPS11",0.65 log 2
same,L/H ratio of acetylated peptide SGK(ac)YDLDFK,"SEQ ID NO: 688, Isoform alpha-enolase of Alpha-enolase [256], ENO1",0.65 log 2
same,L/H ratio of acetylated peptide LYGDLK(ac)HLK,"SEQ ID NO: 689, cDNA FLJ61478 highly similar to Succinate dehydrogenase (ubiquinone) flavoprotein subunit mitochondrial [547], SDHA",0.65 log 2
same,L/H ratio of acetylated peptide VENEAEK(ac)DLQCHAPVR,"SEQ ID NO: 690, Isoform 1 of Bromodomain-containing protein 7 [103], BRD7",0.65 log 2
same,L/H ratio of acetylated peptide DSLYK(ac)[…],"SEQ ID NO: 691, Isoform 1 of Clathrin heavy chain 1 [1535], CLTC",0.65 log 2
same,L/H ratio of acetylated peptide TISAK(ac)YAEER,"SEQ ID NO: 692, Isoform 1 of Myosin-9 [1459], MYH9",0.65 log 2
same,L/H ratio of acetylated peptide (ac)ASNK(ac)TTLQK,"SEQ ID NO: 693, Chromobox protein homolog 3 [5], CBX3",0.66 log 2
same,L/H ratio of acetylated peptide GYLADPAK(ac)FPEAR,"SEQ ID NO: 694, 39S ribosomal protein L15 mitochondrial [228], MRPL15",0.66 log 2
same,L/H ratio of acetylated peptide SCEIK(ac)FLTFK,"SEQ ID NO: 695, Isoform 2 of 39S ribosomal protein L39 mitochondrial [126], MRPL39",0.66 log 2
